Measured values published in ChEMBL document CHEMBL6087461, “Cell-Permeable Peptide Inhibitors of the p53-hDM2 Interaction via Foldamer Helix Mimicry and Bis-Thioether Stapling” (J Med Chem, 2025).
The source made the active and inactive calls. The rule behind the calls is not given here. Starred links: 1 amine or outer side, 2 acyl side, 3 side chain; linkers in the order of their positions; H or OH if unused. Positions of bridges follow the written chain, without caps; N, C: chain ends. Residues, ends and D or L forms follow the SMILES beside them. X1 = CC(C)[C@@H](CNC(N)=O)NC(=O)NC[C@H](C)NC(=O)NC[C@H](CSCCCCCC[*:1])N[*:2]

Legend:
HCT-116 [1] = assay: Induction of P21 RNA level in human HCT-116 cells expressing wild type p53 measured after 6 hrs by RT-qPCR analysis; format: functional, cell-based; settings: dose 0.1-10 µM
[2] = PROTAC activity at human DM2/p53 extracted from Escherichia coli interaction by measuring inhibition of interaction by time-resolved fluorescence energy transfer (TRFRET) detection method
HCT-116 [3] = assay: Induction of p53 level in human HCT-116 cells expressing wild type p53 measured after 6 hrs by Western blotting analysis; format: functional, cell-based; settings: dose 0.1-40 µM
HCT-116 [4] = assay: Induction of hDM2 RNA level in human HCT-116 cells expressing wild type p53 measured after 6 hrs by RT-qPCR analysis; format: functional, cell-based; settings: dose 0.1-10 µM
HCT-116 [5] = assay: Cytotoxicity against human HCT-116 cells assessed as cell viability at 0.1 to 40 uM measured after 2 hrs incubation by LDH release assay; format: functional, cell-based; settings: dose 0.1-40 µM
[6] = biological target: Tumour suppressor protein p53/Mdm4 (Homo sapiens, UniProt O15151); assay: PROTAC activity at human DMX/p53 extracted from Escherichia coli interaction by measuring inhibition of interaction by time-resolved fluorescence energy transfer (TRFRET) detection method; format: protein assay
Sequence of Tumour suppressor protein p53/Mdm4 (P04637 whole entry): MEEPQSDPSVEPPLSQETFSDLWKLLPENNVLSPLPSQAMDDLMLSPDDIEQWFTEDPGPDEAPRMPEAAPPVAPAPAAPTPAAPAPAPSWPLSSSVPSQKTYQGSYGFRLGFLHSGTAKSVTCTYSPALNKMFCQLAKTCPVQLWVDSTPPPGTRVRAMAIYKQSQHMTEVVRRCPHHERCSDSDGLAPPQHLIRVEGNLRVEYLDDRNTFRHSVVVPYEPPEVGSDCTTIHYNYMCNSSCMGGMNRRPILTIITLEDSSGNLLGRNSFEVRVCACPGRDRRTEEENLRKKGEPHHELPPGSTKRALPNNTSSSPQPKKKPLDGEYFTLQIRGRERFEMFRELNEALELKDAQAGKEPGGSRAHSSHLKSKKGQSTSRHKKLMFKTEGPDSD
Sequence of Tumour suppressor protein p53/Mdm4 (O15151 whole entry): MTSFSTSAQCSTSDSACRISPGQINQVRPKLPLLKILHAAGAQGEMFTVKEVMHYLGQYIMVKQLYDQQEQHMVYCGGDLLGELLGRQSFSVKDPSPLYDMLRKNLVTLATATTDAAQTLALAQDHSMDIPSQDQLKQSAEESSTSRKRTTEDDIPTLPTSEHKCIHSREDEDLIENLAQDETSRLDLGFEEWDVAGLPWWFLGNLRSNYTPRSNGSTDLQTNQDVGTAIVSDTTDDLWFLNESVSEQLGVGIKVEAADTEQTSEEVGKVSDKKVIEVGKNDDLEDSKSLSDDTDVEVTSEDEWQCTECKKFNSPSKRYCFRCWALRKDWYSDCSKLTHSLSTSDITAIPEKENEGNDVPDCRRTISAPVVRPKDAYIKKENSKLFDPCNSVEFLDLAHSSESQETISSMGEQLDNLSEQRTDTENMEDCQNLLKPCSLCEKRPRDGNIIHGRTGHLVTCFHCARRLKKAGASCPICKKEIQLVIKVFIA

[7] = biological target: Tumour suppressor protein p53/Mdm4 (Homo sapiens) (UniProt P04637+O15151); assay: PROTAC activity at human DMX/p53 extracted from Escherichia coli interaction at 100 nM by measuring inhibition of interaction by time-resolved fluorescence energy transfer (TRFRET) detection method relative to control; format: protein assay
Sequence of Tumour suppressor protein p53/Mdm4 (Homo sapiens) (O15151 whole entry, looked up): as the sequence (O15151 whole entry) above
Sequence of Tumour suppressor protein p53/Mdm4 (Homo sapiens) (P04637 whole entry, looked up): as the sequence (P04637 whole entry) above

[8] = biological target: Tumour suppressor p53/oncoprotein Mdm2 (Homo sapiens) (UniProt P04637+Q00987); assay: PROTAC activity at human MDM2/p53 extracted from Escherichia coli interaction by measuring inhibition of interaction at 100 nM by time-resolved fluorescence energy transfer (TRFRET) detection method relative to control; format: protein assay
Sequence of Tumour suppressor p53/oncoprotein Mdm2 (Homo sapiens) (P04637 whole entry, looked up): as the sequence (P04637 whole entry) above
Sequence of Tumour suppressor p53/oncoprotein Mdm2 (Homo sapiens) (Q00987 whole entry, looked up): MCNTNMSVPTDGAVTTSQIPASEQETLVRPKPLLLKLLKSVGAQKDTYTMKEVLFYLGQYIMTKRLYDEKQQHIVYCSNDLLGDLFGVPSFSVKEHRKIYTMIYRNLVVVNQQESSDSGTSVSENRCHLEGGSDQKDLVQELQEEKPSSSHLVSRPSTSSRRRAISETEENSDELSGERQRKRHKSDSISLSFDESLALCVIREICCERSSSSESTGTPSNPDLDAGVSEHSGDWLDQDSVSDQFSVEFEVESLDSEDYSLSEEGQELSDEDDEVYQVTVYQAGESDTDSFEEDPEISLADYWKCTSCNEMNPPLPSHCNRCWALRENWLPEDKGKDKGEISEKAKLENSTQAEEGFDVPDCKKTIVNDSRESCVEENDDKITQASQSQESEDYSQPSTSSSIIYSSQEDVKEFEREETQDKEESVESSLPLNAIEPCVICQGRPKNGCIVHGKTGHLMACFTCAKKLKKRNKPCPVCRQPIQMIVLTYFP

SW480 [9] = assay: Cytotoxicity against human SW480 cells expressing […] assessed as cell viability at 0.1 to 40 uM measured after 72 hrs incubation by MTS cell viability assay; format: functional, cell-based; settings: dose 0.1-40 µM
HCT-116 [10] = assay: Effect on increase in wild type p53 level in human HCT-116 cells at 10 uM measured after 6 hrs by Western blot analysis; format: functional, cell-based
SW480 [11] = assay: Cytotoxicity against human SW480 cells expressing lower level of human DM2 assessed as cell viability measured after 72 hrs incubation by MTS cell viability assay; format: functional, cell-based
MCF7 = assay: Cytotoxicity against human MCF7 cells expressing wild type p53 and overexpressing human DMX assessed as cell viability measured after 72 hrs incubation by MTS cell viability assay; format: functional, cell-based; settings: MCF7, 72 h
HCT-116 [12] = assay: Effect on increase in […] RNA level in human HCT-116 cells at 10 uM measured after 6 hrs by RT-qPCR analysis; format: functional, cell-based
HCT-116 [13] = assay: Cytotoxicity against human HCT116 cells expressing wild type p53 and overexpressing human DM2 assessed as cell viability measured after 72 hrs incubation by MTS cell viability assay; format: functional, cell-based; settings: HCT-116, 72 h
HCT-116 [14] = assay: Effect on increase in p21 RNA level in human HCT-116 cells at 10 uM measured after 6 hrs by RT-qPCR analysis; format: functional, cell-based
SW480 [15] = assay: Cytotoxicity against human SW480 cells expressing p53 mutant and overexpressing human DM2 assessed as cell viability measured after 72 hrs incubation by MTS cell viability assay; format: functional, cell-based

Row | Compound | IC50 [2] [µM] | IC50 [6] [µM] | Activity [7] | inhibition [8] | Activity (HCT-116 [1]) | Activity (HCT-116 [3]) | Activity (HCT-116 [4]) | Activity (HCT-116 [5]) | Activity (SW480 [9]) | Activity (HCT-116 [10]) | Activity (SW480 [11]) | IC50 (MCF7) [µM] | Activity (HCT-116 [12]) | IC50 (HCT-116 [13]) [µM] | Activity (HCT-116 [14]) | Activity (SW480 [15])
1 | CC(=O)N[C@@H](CC(C)C)C(=O)N[C@H](C(=O)N[C@@H](Cc1ccccc1)C(=O)N[C@H]1CSCCCCCCSC[C@@H](CNC(=O)N[C@@H](C)CNC(=O)N[C@H](CNC(N)=O)C(C)C)NC(=O)[C@H](Cc2c[nH]c3ccccc23)NC(=O)[C@H](Cc2ccc(O)cc2)NC(=O)[C@H](CCC(=O)O)NC1=O)[C@@H](C)O (Ac-LTFCEYW; linker 4-C via X1) | 0.0158 | 262 | – | – | Dose-dependent-effect | Dose-dependent-effect; Similar To Nutlin-3A And Able To Increase As Low As 0.5 Um | Dose-dependent-effect | Not active; Indicating Absence Of Direct Effect On Cell Membranes | – | – | – | – | – | – | – | –
2 | CC(C)[C@@H](CNC(N)=O)NC(=O)NC[C@H](C)NC(=O)NC[C@@H]1CSCCCCCCSC[C@H](NC(=O)[C@H](Cc2ccccc2)NC(=O)[C@H](CO)NC(=O)[C@H](CCCCN)NC(=O)[C@H](CCCNC(=N)N)NC(=O)[C@H](CCCNC(=N)N)NC(=O)[C@@H](N)CCCNC(=N)N)C(=O)N[C@@H](CCC(=O)O)C(=O)N[C@@H](Cc2ccc(O)cc2)C(=O)N[C@@H](Cc2c[nH]c3ccccc23)C(=O)N1 (H-RRRKSFCEYW; linker 7-C via X1) | 0.0046 | 22 | – | – | – | – | – | – | – | inactive | Active | 3.98 | inactive | 3.86 | inactive | Active

Further lines, with some results ahead:

Row | IC50 [2] [µM] | IC50 [6] [µM] | Activity [7] | inhibition [8] | Compound | Activity (HCT-116 [1]) | Activity (HCT-116 [3]) | Activity (HCT-116 [4]) | Activity (HCT-116 [5]) | Activity (SW480 [9]) | Activity (HCT-116 [10]) | Activity (SW480 [11]) | IC50 (MCF7) [µM] | Activity (HCT-116 [12]) | IC50 (HCT-116 [13]) [µM] | Activity (HCT-116 [14]) | Activity (SW480 [15])
3 | 0.00924 | 73.3 | – | – | CC(=O)N[C@@H](CCCCN)C(=O)N[C@H](C(=O)N[C@@H](Cc1ccccc1)C(=O)N[C@H]1CSCCCCCCSC[C@@H](CNC(=O)N[C@@H](C)CNC(=O)N[C@H](CNC(N)=O)C(C)C)NC(=O)[C@H](Cc2c[nH]c3ccccc23)NC(=O)[C@H](Cc2ccc(O)cc2)NC(=O)[C@H](CCC(=O)O)NC1=O)[C@@H](C)O (Ac-KTFCEYW; linker 4-C via X1) | Dose-dependent-effect | Dose-dependent-effect; Similar To Nutlin-3A | Dose-dependent-effect | Not active; Indicating Absence Of Direct Effect On Cell Membranes | – | – | – | – | – | – | – | –
4 | 0.00895 | 45.4 | inactive | inactive | CC(C)[C@@H](CNC(N)=O)NC(=O)NC[C@H](C)NC(=O)NC[C@@H]1CSCCCCCCSC[C@H](NC(=O)[C@H](Cc2ccccc2)NC(=O)[C@H](CO)NC(=O)[C@H](CCCCN)NC(=O)[C@@H](N)CCCCN)C(=O)N[C@@H](CCC(=O)O)C(=O)N[C@@H](Cc2ccc(O)cc2)C(=O)N[C@@H](Cc2c[nH]c3ccccc23)C(=O)N1 (H-KKSFCEYW; linker 5-C via X1) | – | – | – | – | Active | – | – | – | – | – | – | –
5 | 0.0102 | 62.7 | inactive | inactive | CC(C)[C@@H](CNC(N)=O)NC(=O)NC[C@H](C)NC(=O)NC[C@@H]1CSCCCCCCSC[C@H](NC(=O)[C@H](Cc2ccccc2)NC(=O)[C@H](CO)NC(=O)[C@@H](NC(=O)[C@H](CCCCN)NC(=O)[C@@H](N)CCCCN)[C@@H](C)O)C(=O)N[C@@H](CCC(=O)O)C(=O)N[C@@H](Cc2ccc(O)cc2)C(=O)N[C@@H](Cc2c[nH]c3ccccc23)C(=O)N1 (H-KKTSFCEYW; linker 6-C via X1) | – | – | – | – | Active | – | – | – | – | – | – | –
